According to patent US9120749B2, “Quinoline derivatives and MELK inhibitors containing the same” (ONCOTHERAPY SCIENCE, INC., priority 2010, dated 2015):
Structures can show the parent of a compound that is named as a salt. Where two headings read alike, the source gives them in different places.

Molecular target: MELK (Homo sapiens, UniProt Q14680)
Test: Kinase assay: MELK activity, phosphorylation of FITC-labeled histone H3 peptide measured by IMAP fluorescence polarization
Assay type: biochemical
Settings: read-out: IC50 (μM) (kinase assay)
Procedure: MELK activity was determined in the presence or absence of compounds using fluorescein isothiocyanate-labeled (FITC-labeled) histone H3 peptide as a substrate. […] Test compounds were dissolved in DMSO at 12.5 mM and then serially diluted as the DMSO concentration in the assays to be 1%. […] The reaction was stopped by the addition of three fold assay volume of progressive binding solution. Following 0.5 hour incubation at room temperature, fluorescence polarization was measured by Wallac EnVision 2103 multilabel reader (PerkinElmer).

[1] = MELK kinase assay, IMAP fluorescence polarization, 50 micro-M ATP

Chain of MELK (Q14680 whole entry, looked up): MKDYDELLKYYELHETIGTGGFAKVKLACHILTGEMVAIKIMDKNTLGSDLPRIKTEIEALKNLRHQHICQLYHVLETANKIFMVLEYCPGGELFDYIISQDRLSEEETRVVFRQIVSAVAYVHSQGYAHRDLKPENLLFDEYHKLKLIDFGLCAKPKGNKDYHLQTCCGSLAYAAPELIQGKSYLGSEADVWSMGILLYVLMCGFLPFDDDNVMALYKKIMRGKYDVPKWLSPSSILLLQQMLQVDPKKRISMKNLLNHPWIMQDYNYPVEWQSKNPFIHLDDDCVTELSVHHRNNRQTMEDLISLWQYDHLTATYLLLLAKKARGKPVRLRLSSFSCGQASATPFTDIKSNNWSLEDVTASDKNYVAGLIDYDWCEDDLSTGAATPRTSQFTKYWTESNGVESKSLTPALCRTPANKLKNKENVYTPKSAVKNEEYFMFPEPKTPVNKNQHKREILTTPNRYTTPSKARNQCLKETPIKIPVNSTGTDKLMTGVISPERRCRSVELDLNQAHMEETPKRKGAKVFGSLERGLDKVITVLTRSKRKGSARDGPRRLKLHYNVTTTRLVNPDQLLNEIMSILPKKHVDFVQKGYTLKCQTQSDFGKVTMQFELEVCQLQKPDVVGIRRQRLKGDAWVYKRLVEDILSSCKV

Question: How did the IC50 [1] turn out when `CC(=O)c1cnc2ccc(-c3ccc4nc[nH]c4c3)cc2c1Nc1ccc(N2CCC(N(C)C)C2)nc1` (stereo not shown) [Example 905, 1-(6-(1H-benzo[d]imidazol-6-yl)-4-((6-(3-(dimethylamino)pyrrolidin-1-yl)pyridin-3-yl)amino)quinolin-3-yl) ethanone hydrochloride] was run?
Answer: 0.11 µM

Question: How did the IC50 [1] turn out when `CN1CCN(c2ccc(Nc3c(C(=O)C4CC4)cnc4cc(C(F)(F)F)c(-c5cc(Cl)c(O)c(Cl)c5)cc34)cn2)CC1` [Example 839, cyclopropyl(6-(3,5-dichloro-4-hydroxy-phenyl)-4-(6-(4-methylpiperazin-1-yl)pyridin-3-ylamino)-7-(trifluoro-methyl)quinolin-3-yl)methanone] was run?
Answer: 4.2 µM

Question: How did the IC50 (hydrochloride) turn out when `CN(CCO)C[C@H]1CC[C@H](Nc2c(C(=O)C3CC3)cnc3ccc(-c4cc(Cl)c(O)c(Cl)c4)cc23)CC1` [Example 635, cyclopropyl(6-(3,5-dichloro-4-hydroxyphenyl)-4-(1R,4R)-4-(((2-hydroxyethyl)(methyl)amino)methyl)cyclohexylamino)quinolin-3-yl)methanone hydrochloride] was run?
Answer: 0.00074 µM

Question: How did the IC50 [1] turn out when `CN(C)[C@H]1CC[C@H](Nc2c(C(=O)C3CC3)cnc3ccc(-c4cc(F)c(O)c(Cl)c4)cc23)CC1` [Example 264, (6-(3-chloro-5-fluoro-4-hydroxyphenyl)-4-((1R,4R)-4-(dimethylamino)cyclohexylamino)quinolin-3-yl)(cyclopropyl)methanone] was run?
Answer: 0.0029 µM

Question: `CN1CCN(c2ccc(Nc3c(C(=O)C4CC4)cnc4cc(C(F)(F)F)c(-c5cc(F)c(O)c(Cl)c5)cc34)cn2)CC1` [Example 840, (6-(3-chloro-5-fluoro-4-hydroxyphenyl)-4-(6-(4-methylpiperazin-1-yl)pyridin-3-ylamino)-7-(trifluoromethyl)quinolin-3-yl)(cyclopropyl)methanone] was tested. Which IC50 [1] did it give?
Answer: 3.1 µM

Question: How did the IC50 [1] turn out when `CC(=O)c1c(C)nc2ccc(-c3cc(F)c(O)c(Cl)c3)cc2c1N[C@H]1CC[C@H](CN(C)C)CC1` [Example 834, 1-(6-(3-chloro-5-fluoro-4-hydroxy-phenyl)-4-(1R,4R)-4-((dimethylamino)methyl)cyclohexylamino)-2-methyl-quinolin-3-yl)ethanone hydrochloride] was run?
Answer: 0.82 µM

Question: Which IC50 [1] does the source give for `CC(=O)c1cnc2ccc(-c3cc(Cl)c(O)c(Cl)c3)cc2c1Nc1ccc(CN(C)C)cc1` [Example 374] here?
Answer: 0.0066 µM

Question: `COc1ccc2c(c1)CN(c1ccc3ncc(C(C)=O)c(N[C@H]4CC[C@H](CN(C)C)CC4)c3c1)C2=O` [Example 933] was tested. Which IC50 [1] did it give?
Answer: 1.2 µM

Question: With `N[C@H]1CC[C@H](Nc2c(C(=O)C3CC3)cnc3ccc(-c4cc(F)c(O)c(Cl)c4)cc23)CC1` [Example 936, (4-((1R,4R)-4-aminocyclohexylamino)-6-(3-chloro-5-fluoro-4-hydroxyphenyl)quinolin-3-yl)(cyclopropyl)methanone, hydrochloride] as the molecule, how does the IC50 [1] read?
Answer: 0.0019 µM

Question: `CC(=O)c1cnc2cc(C)c(-c3cc(Cl)c(O)c(Cl)c3)cc2c1N[C@H]1CC[C@H](CN(C)C)CC1` [Example 857] was tested. Which IC50 [1] did it give?
Answer: 3.4 µM

Question: For `CC(=O)c1cnc2cc(C)c(-c3cc(F)c(O)c(Cl)c3)cc2c1Nc1ccc(N2CCN(C)CC2)nc1` [Example 856, 1-(6-(3-chloro-5-fluoro-4-hydroxy-phenyl)-7-methyl-4-((6-(4-methyl-piperazin-1-yl)pyridin-3-yl)amino)quinolin-3-yl)ethanone hydrochloride], which IC50 [1] is on record?
Answer: 0.46 µM

Question: With `CN(C)[C@H]1CC[C@H](Nc2c(C(=O)C3CC3)cnc3ccc(-c4cc(Cl)c(O)c(Cl)c4)cc23)CC1` [Example 941, cyclopropyl(6-(3,5-dichloro-4-hydroxyphenyl)-4-((1R,4R)-4-(dimethylamino)cyclohexylamino)quinolin-3-yl)methanone, dihydrobromide] as the molecule, how does the IC50 [1] read?
Answer: 0.0016 µM

Question: For `CN(C)C[C@H]1CC[C@H](Nc2c(C(=O)C3CC3)cnc3cc(C(F)(F)F)c(-c4cc(F)c(O)c(Cl)c4)cc23)CC1` [Example 841], which IC50 [1] is on record?
Answer: 0.77 µM

Question: With `CC(=O)c1cnc2ccc(-c3cc(Cl)c(O)c(Cl)c3)cc2c1N[C@H]1CC[C@H](CN(C)C)CC1` [Example 944, 1-{6-(3,5-Dichloro-4-hydroxyphenyl)-4-[trans-4-((dimethylamino)methyl)cyclohexylamino]quinolin-3-yl}ethanone hydrochloride] as the molecule, how does the IC50 (MELK kinase assay, IMAP fluorescence polarization, 50 micro-M ATP, hydrochloride) read?
Answer: 0.00094 µM

Question: `CC(=O)c1cnc2ccc(-c3cc(Cl)c(O)c(Cl)c3)cc2c1Nc1ccc(CN(C)C)cc1` [Example 942, 1-(6-(3,5-dichloro-4-hydroxyphenyl)-4-(4-((dimethylamino)methyl)phenylamino)quinolin-3-yl)ethanone] was tested. Which IC50 [1] did it give?
Answer: 0.0022 µM

Question: How did the IC50 [1] turn out when `CC(=O)c1cnc2cc(C)c(-c3cc(F)c(O)c(Cl)c3)cc2c1Nc1ccc(CN(C)C)cc1` [Example 858, 1-(6-(3-chloro-5-fluoro-4-hydroxy-phenyl)-4-((4-((dimethylamino)methyl)phenyl)amino)-7-methylquinolin-3-yl)ethanone hydrochloride] was run?
Answer: 0.2 µM

Question: For `CN(C)C[C@H]1CC[C@H](Nc2c(C(=O)C3CC3)cnc3cc(C(F)(F)F)c(-c4cc(Cl)c(O)c(Cl)c4)cc23)CC1` [Example 842], which IC50 [1] is on record?
Answer: 0.93 µM

Question: Which IC50 [1] does the source give for `CC(=O)c1cnc2ccc(-c3cc(Cl)c(O)c(Cl)c3)cc2c1N[C@H]1CC[C@H](N)CC1` [Example 939, 1-(4-((1R,4R)-4-aminocyclohexylamino)-6-(3,5-dichloro-4-hydroxyphenyl)quinolin-3-yl)ethanone, hydrochloride] here?
Answer: 0.0034 µM

Question: With `CC(=O)c1cnc2ccc(-c3ccc(-c4ccc(O)cc4)cc3)cc2c1Nc1cccc(CCN2CCCC2)c1` [Example 888, 1-(6-(4′-hydroxy-[1,1′-biphenyl]-4-yl)-4-((3-(2-(pyrrolidin-1-yl)ethyl)phenyl)amino)quinolin-3-yl) ethanone hydrochloride] as the molecule, how does the IC50 [1] read?
Answer: 3.4 µM

Question: `CC(=O)c1cnc2cc(C)c(-c3cc(Cl)c(O)c(Cl)c3)cc2c1Nc1ccc(CN(C)C)cc1` [Example 847, 1-(6-(3,5-dichloro-4-hydroxyphenyl)-4-(4-((dimethylamino)methyl)phenyl-amino)-7-methylquinolin-3-yl) ethanone hydrochloride] was tested. Which IC50 [1] did it give?
Answer: 0.55 µM

Question: How did the IC50 [1] turn out when `COc1cc(-c2ccc3ncc(C(C)=O)c(N[C@H]4CC[C@H](N)CC4)c3c2)cc(Cl)c1O` [Example 940, 1-(4-((1R,4R)-4-aminocyclohexylamino)-6-(3-chloro-4-hydroxy-5-methoxyphenyl)quinolin-3-yl)ethanone, hydrochloride] was run?
Answer: 0.0012 µM

Question: How did the IC50 [1] turn out when `CC(=O)c1cnc2ccc(-c3cc(F)c(O)c(Cl)c3)cc2c1N[C@H]1CC[C@H](CN(C)C)CC1` [Example 378, 1-(6-(3-chloro-5-fluoro-4-hydroxyphenyl)-4-((trans)-4-((dimethylamino)methyl)cyclohexylamino)quinolin-3-yl) ethanone] was run?
Answer: 0.0061 µM

Question: For `CC(=O)c1cnc2ccc(-c3ccncc3)cc2c1N[C@H]1CC[C@H](CN(C)C)CC1` [Example 908, 1-(4-((1R,4R)-4-((dimethylamino)methyl)cyclohexyl)amino)-6-(pyridin-4-yl)quinolin-3-yl)ethanone hydrochloride], which IC50 [1] is on record?
Answer: 0.23 µM

Question: `CN(C)C[C@H]1CC[C@H](Nc2c(C(=O)C3CC3)cnc3ccc(-c4cc(Cl)c(O)c(Cl)c4)cc23)CC1` [Example 324, cyclopropyl(6-(3,5-dichloro-4-hydroxyphenyl)-4-(trans-4-((dimethylamino)methyl)cyclohexylamino)quinolin-3-yl)methanone] was tested. Which IC50 [1] did it give?
Answer: 0.00085 µM

Question: How did the IC50 [1] turn out when `CC(=O)c1c(C)nc2ccc(-c3cc(Cl)c(O)c(Cl)c3)cc2c1N[C@H]1CC[C@H](CN(C)C)CC1` [Example 833, 1-(6-(3,5-dichloro-4-hydroxyphenyl)-4-(1R,4R)-4-((dimethylamino)methyl)cyclohexylamino)-2-methylquinolin-3-yl)ethanone hydrochloride] was run?
Answer: 0.17 µM

Question: How did the IC50 (MELK kinase assay, IMAP fluorescence polarization, 50 micro-M ATP, dihydrochloride) turn out when `CC(=O)c1cnc2ccc(-c3cc(F)c(O)c(Cl)c3)cc2c1N[C@H]1CC[C@H](CN(C)C)CC1` [Example 943, 1-(6-(3-chloro-5-fluoro-4-hydroxyphenyl)-4-((trans-4-((dimethylamino)methyl)cyclohexyl)amino)quinolin-3-yl)ethanone dihydrochloride] was run?
Answer: 0.004 µM

Question: `CC(C)C(=O)c1cnc2ccc(-c3cc(F)c(O)c(F)c3)cc2c1N[C@H]1CC[C@H](N)CC1` [Example 938, 1-(4-((1R,4R)-4-aminocyclohexylamino)-6-(3,5-difluoro-4-hydroxyphenyl)quinolin-3-yl)-2-methylpropan-1-one, hydrochloride] was tested. Which IC50 [1] did it give?
Answer: 0.017 µM

Question: With `O=C(c1cnc2ccc(-c3cc(Cl)c(O)c(Cl)c3)cc2c1Nc1ccc(CN2CCCC2)cc1)C1CC1` [Example 366, Cyclopropyl{6-(3,5-dichloro-4-hydroxyphenyl)-4-[4-(pyrrolidin-1-ylmethyl)phenylamino]quinolin-3-yl}methanone] as the molecule, how does the IC50 [1] read?
Answer: 0.15 µM

Question: `CC(=O)c1cnc2cc(C)c(-c3cc(F)c(O)c(Cl)c3)cc2c1N[C@H]1CC[C@H](CN(C)C)CC1` [Example 859, 1-(6-(3-chloro-5-fluoro-4-hydroxy-phenyl)-4-((1R,4R)-4-((dimethylamino)methyl)cyclohexyl)amino)-7-methyl-quinolin-3-yl)ethanone hydrochloride] was tested. Which IC50 [1] did it give?
Answer: 0.84 µM

Question: How did the IC50 [1] turn out when `CC(C)C(=O)c1cnc2ccc(-c3cc(F)c(O)c(Cl)c3)cc2c1N[C@H]1CC[C@H](N)CC1` [Example 937, 1-(4-((1R,4R)-4-aminocyclohexylamino)-6-(3-chloro-5-fluoro-4-hydroxyphenyl)quinolin-3-yl)-2-methylpropan-1-one, dihydrochloride] was run?
Answer: 0.0054 µM

Question: How did the IC50 [1] turn out when `CC(=O)c1c(C)nc2ccc(-c3cc(F)c(O)c(Cl)c3)cc2c1Nc1ccc(N2CCN(C)CC2)nc1` [Example 837, 1-(6-(3-chloro-5-fluoro-4-hydroxy-phenyl)-2-methyl-4-(6-(4-methyl-piperazin-1-yl)pyridin-3-ylamino)quinolin-3-yl)ethanone hydrochloride] was run?
Answer: 0.54 µM
